According to ChEMBL document CHEMBL6153025, “Multidrug-resistant bacteria quorum-sensing inhibitors: A particular focus on Pseudomonasaeruginosa” (Eur J Med Chem, 2025):
Converted amounts (≈) assume the structure as drawn.

Experiments:
[1] = Inhibition of quorum sensing system in Pseudomonas aeruginosa PAO1 expressing lasB-gfp
[2] = tested on: Pseudomonas aeruginosa; assay: Anti-virulence activity in Pseudomonas aeruginosa PAO1 assessed as reduction in elastase production; type: functional, organism-based
[3] = tested on: Pseudomonas aeruginosa; assay: Inhibition of pyocyanin production in Pseudomonas aeruginosa PAO1; type: functional, organism-based
[4] = tested on: Pseudomonas aeruginosa; assay: Antibiofilm activity against Pseudomonas aeruginosa ATCC 27853 assessed as reduction in biofilm biomass at 16 ug/ml relative to control; type: functional; set-up: scale not given: the % may be the effect or the level left; settings: dose 16 µg/ml
[5] = tested on: Pseudomonas aeruginosa; assay: Inhibition of rhamnolipid production in Pseudomonas aeruginosa PAO1; type: functional, organism-based
[6] = Inhibition of quorum sensing system in Pseudomonas aeruginosa PAO1 expressing lasB-gfp at 16 uM relative to control
[7] = tested on: Pseudomonas aeruginosa; assay: Antibiofilm activity against Pseudomonas aeruginosa PA14 assessed as reduction in biofilm formation at 16 ug/ml incubated for 2 to 4 hrs by crystal violet staining based analysis relative to control; type: functional; set-up: scale not given: the % may be the effect or the level left; settings: dose 16 µg/ml; time 2-4 hrs
[8] = tested on: Pseudomonas aeruginosa; assay: Antivirulence activity against Pseudomonas aeruginosa PAO1 assessed as reduction in pyocyanin level at 10 uM relative to control; type: functional; set-up: scale not given: the % may be the effect or the level left
[9] = tested on: Pseudomonas aeruginosa; assay: Downregulation of rhlA mRNA level in Pseudomonas aeruginosa PAO1 at 32 ug/ml relative to control; type: functional; settings: dose 32 µg/ml
[10] = Inhibition of quorum sensing system in Pseudomonas aeruginosa PAO1- rhlA-gfp assessed as reduction in fluorescence intensity measured for 12 hrs by GFP reporter strain assay
[11] = Inhibition of quorum sensing system in Pseudomonas aeruginosa PAO1-pqsA-gfp assessed as reduction in fluorescence intensity incubated for 12 hrs by GFP reporter strain assay
[12] = tested on: Pseudomonas aeruginosa; assay: Antibiofilm activity against logarithmic growth phase Pseudomonas aeruginosa PAO1 assessed as inhibition of biofilm formation incubated for 20 hrs by crystal violet staining based analysis; type: functional, organism-based; settings: PAO1, 20 h
[13] = tested on: Pseudomonas aeruginosa; assay: Antivirulence activity in Pseudomonas aeruginosa PAO1 assessed as reduction in elastase production at 10 uM relative to control; type: functional; set-up: scale not given: the % may be the effect or the level left
[14] = tested on: Pseudomonas aeruginosa; assay: Antimicrobial activity against Pseudomonas aeruginosa PAO1 assessed as reduction in bacterial growth measured for 24 hrs by broth micro-dilution method; type: functional
[15] = tested on: Pseudomonas aeruginosa; assay: Anti-virulence effect in Pseudomonas aeruginosa PAO1 assessed as inhibition of rhamnolipid production at 250 ug/ml relative to control; type: functional; set-up: scale not given: the % may be the effect or the level left; settings: dose 250 µg/ml
[16] = tested on: Pseudomonas aeruginosa; assay: Antibiofilm activity against Pseudomonas aeruginosa PAO1 assessed as reduction in biofilm formation at 16 ug/ml incubated for 2 to 4 hrs by crystal violet staining based analysis relative to control; type: functional; set-up: scale not given: the % may be the effect or the level left; settings: dose 16 µg/ml; time 2-4 hrs
[17] = tested on: Pseudomonas aeruginosa; assay: Anti-virulence effect in Pseudomonas aeruginosa PAO1 assessed as inhibition of pyocyanin production at 250 ug/ml relative to control; type: functional; set-up: scale not given: the % may be the effect or the level left; settings: dose 250 µg/ml
[18] = tested on: Pseudomonas aeruginosa; assay: Antibiofilm activity against Pseudomonas aeruginosa PAO1 assessed as inhibition of biofilm formation at 250 ug/ml incubated for 24 hrs by crystal violet staining based assay relative to control; type: functional; set-up: scale not given: the % may be the effect or the level left; settings: dose 250 µg/ml

O=C(/C=C/c1ccc(O)c(O)c1)OCCc1ccc(Br)cc1
IC50 [1]: 20 µM | IC50 [2]: 20 µM | IC50 [3]: 20 µM | Activity [4]: 33.69% | IC50 [5]: 1.25 µM

CCCCCCC/C=C\C(=O)O
inhibition [6]: 44% | Activity [7]: 8%

C=C1CC(=O)N(c2ccc(Br)cc2)C1=O
Activity [8]: 55% | Activity [9]: 78% | IC50 [10]: 6.67 µM | IC50 [11]: 2.51 µM | IC50 [12]: 10 µM

C=C1CC(=O)N(CCCCCCCCCCCCCC)C1=O
Activity [8]: 55% | Activity [9]: 75% | Activity [13]: 50% | IC50 [10]: 0.61 µM | IC50 [11]: 0.143 µM

Fc1ccc(-c2nn(-c3ccc(Cl)cc3)cc2-c2nc(-c3ccccc3)c(-c3ccccc3)[nH]2)c(Br)c1
MIC [14]: 63 µg/mL (≈ 111 µM)

O=C1CCc2ccccc2O1 [DIHYDROCOUMARIN]
Activity [15]: 48.94% | Activity [16]: 36% | Activity [17]: 87.25% | Activity [18]: 46.1%
